Entries after “also recorded” stand apart in the source; their conditions may differ.
How the values were obtained:
[1] = tested on: peripheral pro-inflammatory cells; test: TBI (fluid percussion injury), peripheral pro-inflammatory cells; assay type: in vivo; conditions: TBI / FPI
From the text: FIG. 17. CAP reduces peripheral pro-inflammatory cells. TBI is traumatic brain injury. FPI is fluid percussion injury.

CD8+ T cells = test: CAP-induced expansion of CD8+ T cells with or without α7nAChR antagonist; assay type: in vivo; conditions: CAP treatment
splenic B cells = test: CFA-sensitized mice treated with Peptide with or without MLA, FACS of splenic B cells; assay type: in vivo
Protocol: (§1) SUMMARY: A study was conducted to evaluate a potential alpha7 nAChR anti-inflammatory mechanism of the MKR-4 peptide, using the alpha7 nAChR antagonist methyllycaconitine (MLA). After enrollment, animals in Groups 2-4 were sensitized ID at the base of the tail with 0.1 mL FCA on Day 1. On Days 2, 3, 5 & 7 Groups were then dosed intraperitoneally (IP) with either: peptide and MLA in combination (2 mg/kg and 6 mg/kg, respectively); peptide (2 mg/kg) and MLA vehicle (saline) in combination; or peptide vehicle (saline) and MLA vehicle (saline). Animals were dosed once on Study Day 2 (MLA or MLA vehicle), and Days 3, 5 & 7 (Peptide or Peptide vehicle, MLA or MLA vehicle) as described in Table 2 below. Body weights were recorded on Study Days 0 & 8. Mice were euthanized for necropsy on Study Day 8, and serum and whole spleens were collected from all animals and sent to the sponsor for internal FACS analysis. Toxicity and Peptide mechanistic evaluation was based on absolute body weight change, spleen weights and sponsor FACS analysis (not included in report).
Antibodies and Flow Cytometry. Single cell suspensions were made of tissues or cells harvested from culture and stained with the following monoclonal antibodies: a monoclonal antibody directed against mouse alpha 7 nicotinic acetylcholine receptor (alpha 7 nAChR) (Santa Cruz Biotechnology); anti-mouse MHC Class II (M5114), and anti-mouse CLIP 15G4, Santa Cruz. Following staining, cells were analyzed comparing each level of staining to the appropriate isotype control on a Beckman Coulter Cytoflex benchtop flow cytometer. Data was analyzed using FlowJo software (Tree Star Inc.).
Experimental Design: On Study Day 0, mice were weighed and randomized by body weight into treatment groups. Following randomization, on Study Day 1, Groups 2-4 were sensitized ID at the base of the tail with 0.1 mL of FCA. When MLA and Peptide (FRIMAVLAS (SEQ ID NO: 389))—or their vehicles—were dosed on the same day, the MLA antagonist or vehicle was dosed 1 hour before the Peptide or its vehicle.
On Study Day 8, mice were anesthetized with Isoflurane (VetOne, Cat #502017) and bled to exsanguination followed by cervical dislocation for necropsy and tissue collection.

[2] = Preeclampsia model in pregnant mice (TLR agonists), blood pressure; assay type: in vivo; conditions: TLR agonist induced, CAP i.p. 2 mg/kg
Protocol: FIG. 15. CAP reverses inflammatory characteristics in a preeclampsia model. Pregnant mice were treated with TLR agonists (R837, Clo97, and PIC) to induce symptoms of preeclampsia followed by CAP treatment (shown as TPP).
(§2) Preeclampsia, a disease suffered by pregnant woman that is characterized by high blood pressure and signs of damage to other organ systems, most often the liver and kidneys, is often accompanied by inflammation. […] Preeclampsia is also associated with an elevated TH17 response, including elevated IL17a, and elevated IL17a is associated with human and experimental hypertension and poor perinatal outcomes. […] Therefore, the anti-inflammatory effects of CAP were associated with improved outcomes in this model.

CLIP+ B cells = test: CFA-induced arthritis model, CAP depletion of B cells with or without α7nAChR antagonist; assay type: in vivo, mice
Protocol: FIGS. 11A-11B. […] In this study, CAP was administered at 3 days after CFA, then once daily every 3 days, until day 10 after CFA.
The next series of experiments are focused on the effects of CAP on splenic immune cells. […] As part of this experiment, the mice were co-treated with CAP and the alpha-7 nicotinic acetylcholine receptor (α7nAChR) antagonist, methyllycaconitine (MCA).

[3] = LPS model of sepsis, autoregulation of arterial pressure / afferent arteriolar autoregulatory behavior; assay type: in vivo; conditions: LPS treated rats, CAP treatment
Protocol: FIGS. 16A-16B. Treatment with CAP restores afferent arteriolar autoregulatory behavior in chronic LPS (0.1 mg/kg/day) treated kidneys. Each data point represents the mean±SE. * P<0.05 vs. control diameter in the same group. ‡ P<0.05 vs. control for the same perfusion pressure. # P<0.05 vs. CAP for the same perfusion pressure.
Sepsis is a potentially life-threatening condition, is caused by excessive inflammation resulting from the body trying to fend off infection. […] LPS treatment (0.84 mg/kg) of rats is used as a model of sepsis and results in loss of arterial pressure that is inflammatory and mimics loss of autoregulation in sepsis. We discovered that autoregulation of arterial pressure can be restored with CAP treatment (FIG. 16), further supporting its use to treat infectious disease associated with sepsis.

IL17a = test: Preeclampsia model in pregnant mice (TLR agonists), IL17; assay type: in vivo; conditions: PolyI:C or R837 induced; CAP i.p. (2 mg/kg, gestational day 13 elsewhere in the source)
Protocol: FIG. 9. CAP reduces IL-17 production in a model of preeclampsia. Pregnant mice were treated with the TLR3 or […] agonists to induce symptoms of preeclampsia, followed by CAP treatment.
In a separate study, preeclampsia was induced in pregnant mice by injection of either the toll-like receptor 3 (TLR3) agonist, PolyI:C, or with the toll-like receptor 8 ([…]) agonist R837. […] It is pertinent to note that this power issue has been corrected.
as §2

[4] = Toxicity evaluation in CFA/Peptide/MLA study (survival, body weight change, spleen weight); assay type: in vivo, mice
Protocol: as §1, with “report). […]” for “report).”
Statistical Analysis: Data for each animal were entered into Microsoft Excel and means and standard errors for each group were calculated. Test groups were compared to vehicle controls using a one-way analysis of variance (1-way ANOVA) with a Dunnett's post-hoc analysis for measured (parametric) data. […]

FRIMAVLAS [CAP, α7nAChR agonist]
peripheral pro-inflammatory cells [1]: reduces
expansion of CD8+ T cells (CD8+ T cells): induce the expansion; also recorded: induces expansion
percentage of splenic B cells (splenic B cells; CFA treated and Peptide treated (2 mg/kg IP), vehicle 49.8%, CFA 50.1%): 34.4%
number of CLIP+ B cells (splenic B cells; CFA treated mice, Peptide 2 mg/kg IP): reduction
elevated blood pressure [2]: significantly reduced
CFA-induced B cell expansion (CLIP+ B cells; 3x CAP treatment): reversed
number of CLIP+ B cells (pro-inflammatory B cell populations) (CLIP+ B cells; CAP from 3 days after CFA, once every 3 days until day 10): significantly reduced; also recorded: selectively depletes
autoregulation of arterial pressure (afferent arteriolar autoregulatory behavior) [3]: restores
elevated IL17 (IL17a) (IL17a): significantly reduced
survival to study termination ([4]; Peptide 2 mg/kg IP Days 3, 5, 7, with or without MLA): All mice survived
group body weight change differences and spleen weight differences ([4]; Peptide 2 mg/kg IP, with or without MLA 6 mg/kg, CFA mice): none of the group body weight change differences or spleen weight differences were significant
